Broadly, the IC50 is the concentration at which inhibition is half-maximal. Broadly, the solubility is the dissolved amount per volume that the medium holds. A higher solubility goes with a readily soluble substance.

The source of these data is ChEMBL document CHEMBL3400066, “2-(Isopropylamino)thieno[3,2-d]pyrimidin-4(3H)-one derivatives as selective phosphodiesterase 7 inhibitors with potent in vivo efficacy” (Bioorg Med Chem Lett, 2015).

Converted amounts (≈) assume the structure as drawn. A value given as a limit tells only on which side of the number the result lay.

Data set [1] concerns Lymphocyte. Description: Inhibition of IL2 production in activated mouse lymphocytes after 3 hrs by ELISA. In kind it is functional, cell-based. (In general: An ELISA detects its analyte on a solid surface through an enzyme-linked reagent.)
Data set [2] deals with 3',5'-cyclic-AMP phosphodiesterase 4B (Homo sapiens, UniProt Q07343). Nature of the data set: Inhibition of human PDE4B expressed in insect cells assessed as inhibition of [3H]cAMP to [3H]AMP hydrolysis after 30 mins by scintillation counting.
Chain of 3',5'-cyclic-AMP phosphodiesterase 4B (Q07343 whole entry): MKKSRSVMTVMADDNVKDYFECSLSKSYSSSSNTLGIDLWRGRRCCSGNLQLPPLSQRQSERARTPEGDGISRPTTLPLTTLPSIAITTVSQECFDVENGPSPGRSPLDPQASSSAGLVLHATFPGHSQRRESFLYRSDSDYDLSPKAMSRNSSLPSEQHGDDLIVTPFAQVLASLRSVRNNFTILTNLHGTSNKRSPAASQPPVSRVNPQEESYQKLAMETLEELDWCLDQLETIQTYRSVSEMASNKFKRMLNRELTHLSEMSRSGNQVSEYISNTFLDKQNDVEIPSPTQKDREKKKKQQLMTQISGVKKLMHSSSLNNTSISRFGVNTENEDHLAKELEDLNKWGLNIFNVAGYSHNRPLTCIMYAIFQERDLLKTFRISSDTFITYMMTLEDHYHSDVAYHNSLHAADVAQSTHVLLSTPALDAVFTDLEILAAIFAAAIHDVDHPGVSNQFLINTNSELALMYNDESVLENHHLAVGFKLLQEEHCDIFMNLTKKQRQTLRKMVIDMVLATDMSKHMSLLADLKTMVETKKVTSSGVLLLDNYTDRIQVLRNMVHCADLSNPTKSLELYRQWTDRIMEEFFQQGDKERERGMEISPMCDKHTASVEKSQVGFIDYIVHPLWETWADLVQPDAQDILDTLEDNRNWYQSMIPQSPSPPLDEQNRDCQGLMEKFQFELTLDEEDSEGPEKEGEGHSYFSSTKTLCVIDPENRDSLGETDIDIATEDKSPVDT
The target in data set [3] is cGMP-inhibited 3',5'-cyclic phosphodiesterase 3A (Homo sapiens, UniProt Q14432). Nature of the data set: Inhibition of PDE3A (unknown origin).
Chain of cGMP-inhibited 3',5'-cyclic phosphodiesterase 3A (Q14432 whole entry): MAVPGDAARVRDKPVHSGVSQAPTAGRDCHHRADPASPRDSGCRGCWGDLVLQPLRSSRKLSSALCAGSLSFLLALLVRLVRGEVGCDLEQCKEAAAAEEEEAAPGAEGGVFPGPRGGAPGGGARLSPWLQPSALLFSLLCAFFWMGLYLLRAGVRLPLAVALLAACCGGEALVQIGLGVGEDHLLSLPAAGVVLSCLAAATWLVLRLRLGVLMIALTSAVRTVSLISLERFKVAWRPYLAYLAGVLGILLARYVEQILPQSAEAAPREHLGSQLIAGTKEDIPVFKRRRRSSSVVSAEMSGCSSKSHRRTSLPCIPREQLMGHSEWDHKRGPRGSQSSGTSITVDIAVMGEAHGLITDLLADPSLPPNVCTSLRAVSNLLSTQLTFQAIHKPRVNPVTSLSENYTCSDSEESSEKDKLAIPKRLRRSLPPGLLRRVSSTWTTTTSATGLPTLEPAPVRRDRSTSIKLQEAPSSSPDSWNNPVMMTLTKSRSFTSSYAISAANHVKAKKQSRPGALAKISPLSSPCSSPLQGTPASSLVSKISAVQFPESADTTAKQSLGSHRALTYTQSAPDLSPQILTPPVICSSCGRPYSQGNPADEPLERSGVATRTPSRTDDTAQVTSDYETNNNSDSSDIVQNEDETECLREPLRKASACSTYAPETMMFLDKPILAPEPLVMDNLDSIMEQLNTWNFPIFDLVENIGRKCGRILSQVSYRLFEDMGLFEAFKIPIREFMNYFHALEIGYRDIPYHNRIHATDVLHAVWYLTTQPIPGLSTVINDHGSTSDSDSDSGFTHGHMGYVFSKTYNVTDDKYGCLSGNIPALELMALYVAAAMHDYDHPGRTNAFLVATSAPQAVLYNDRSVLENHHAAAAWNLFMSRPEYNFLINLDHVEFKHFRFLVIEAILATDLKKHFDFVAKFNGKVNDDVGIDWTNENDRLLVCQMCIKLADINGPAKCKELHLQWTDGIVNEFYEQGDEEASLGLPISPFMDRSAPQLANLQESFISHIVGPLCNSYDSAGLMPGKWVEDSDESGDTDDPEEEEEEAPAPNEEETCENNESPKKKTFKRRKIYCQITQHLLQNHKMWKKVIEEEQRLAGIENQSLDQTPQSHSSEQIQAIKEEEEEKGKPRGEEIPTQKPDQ
Data set [4] has as its target High affinity 3',5'-cyclic-AMP phosphodiesterase 7A (Homo sapiens, UniProt Q13946). Nature of the data set: Inhibition of human PDE7A expressed in insect cells assessed as inhibition of [3H]cAMP to [3H]AMP hydrolysis after 30 mins by scintillation counting.
Data set [5] deals with cGMP-specific 3',5'-cyclic phosphodiesterase (Homo sapiens, UniProt O76074). Nature of the data set: Inhibition of PDE5A (unknown origin).
The test system of data set [6] is Mus musculus. Nature of the data set: Antiinflammatory activity in ICR mouse ear edema model assessed as inhibition of TPA-induced edema at 0.3 % W/V per ear administered topically 30 mins before TPA challenge. The class given is functional.
Data set [7] has as its system Mus musculus. Description: Antiinflammatory activity in ICR mouse ear edema model assessed as inhibition of TPA-induced edema at 1% W/V per ear administered topically 30 mins before TPA challenge. In kind it is functional.
Data set [8] can be described thus: Solubility of the compound in phosphate buffer at pH 6.8. The class given is physicochemical.

Chain of High affinity 3',5'-cyclic-AMP phosphodiesterase 7A (Q13946 whole entry): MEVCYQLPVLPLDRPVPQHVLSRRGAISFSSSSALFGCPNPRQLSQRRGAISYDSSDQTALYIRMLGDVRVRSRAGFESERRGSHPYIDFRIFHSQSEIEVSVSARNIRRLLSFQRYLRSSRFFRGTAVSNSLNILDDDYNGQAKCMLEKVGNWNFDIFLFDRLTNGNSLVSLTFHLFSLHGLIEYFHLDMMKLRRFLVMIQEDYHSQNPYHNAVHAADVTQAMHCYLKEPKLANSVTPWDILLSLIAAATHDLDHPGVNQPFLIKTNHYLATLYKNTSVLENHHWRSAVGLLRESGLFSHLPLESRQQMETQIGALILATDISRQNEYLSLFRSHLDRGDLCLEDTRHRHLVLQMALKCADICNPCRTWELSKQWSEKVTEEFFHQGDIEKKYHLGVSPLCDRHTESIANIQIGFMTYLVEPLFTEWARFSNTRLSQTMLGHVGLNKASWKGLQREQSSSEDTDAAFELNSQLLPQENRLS

As for `CCn1c(NC(C)C)nc2c(C3CCN(C(=O)c4cccc(C)n4)C3)csc2c1=O` (stereo not given), the IC50 in data set [1] was determined as 150 nM; in data set [2] it was 46 nM; in data set [3], 1600 nM; in data set [4], 3.3 nM; in data set [5], 2300 nM. The “inhibition (INH)” value in data set [6] was determined as 65%; in data set [7], 96%. The same molecule came in with a solubility in data set [8] of 150 µg/mL (≈ 352 µM).
For the molecule `CCNc1nc2ccsc2c(=O)n1CC`, the IC50 in data set [4] was 2900 nM. Also, in data set [8], the concentration in solution (solubility) was 240 µg/mL (≈ 1070 µM).
For `CCCNc1nc2ccsc2c(=O)n1CC`, in that order: 1400 nM and 69 µg/mL (≈ 291 µM).
Regarding `CCn1c(NC(C)C)nc2ccsc2c1=O`, in data set [8], the solubility came to 190 µg/mL (≈ 801 µM).
In the case of `CCn1c(CC(C)C)nc2ccsc2c1=O`, the IC50 in data set [4] was determined as 4700 nM.
In the case of `CCn1c(NC(C)(C)C)nc2ccsc2c1=O`, the IC50 in data set [4] stood at 1500 nM. In data set [8], the solubility was found to be 3.7 µg/mL (≈ 14.7 µM).
For `CCn1c(NC2CC2)nc2ccsc2c1=O`, in that order: 2600 nM and 430 µg/mL (≈ 1830 µM).
Regarding `CCn1c(NC2CCC2)nc2ccsc2c1=O`, the IC50 was 4800 nM in data set [2] and 300 nM in data set [4]. Besides, the solubility in data set [8] amounted to 6.3 µg/mL (≈ 25.3 µM).
Consider `CCn1c(NC2CCOCC2)nc2ccsc2c1=O`, for which the IC50 in data set [2] amounted to 12000 nM; in data set [4], 430 nM. Besides, the solubility in data set [8] was 37 µg/mL (≈ 132 µM).
For `CCn1c(N[C@H]2CC[C@H](O)CC2)nc2ccsc2c1=O`, the 50% inhibitory concentration (IC50) worked out at 24000 nM in data set [2] and 2300 nM in data set [4]. The same molecule showed a solubility in data set [8] of 74 µg/mL (≈ 252 µM).
Turning to `CCn1c(N[C@H]2CC[C@H](C(=O)OC)CC2)nc2ccsc2c1=O`, the IC50 in data set [4] amounted to 2100 nM. The same molecule displayed a solubility in data set [8] of 13 µg/mL (≈ 38.8 µM).
In the case of `CCn1c(N[C@H]2CC[C@H](C(=O)O)CC2)nc2ccsc2c1=O`, the IC50 in data set [4] amounted to 1300 nM. The molecule further gave a solubility in data set [8] of 450 µg/mL (≈ 1400 µM).
Consider `CCn1c(NC(C)C)nc2c(-c3cccnc3)csc2c1=O`, for which the IC50 in data set [2] turned out to be 520 nM; in data set [4] it was 4.4 nM. This molecule yielded a solubility in data set [8] of 5.8 µg/mL (≈ 18.4 µM).
For `CCn1c(NC(C)C)nc2c(-c3ccco3)csc2c1=O`, in that order: 550 nM, 12 nM and 0.1 µg/mL (≈ 0.33 µM).
As for `CCn1c(NC(C)C)nc2c(-c3sc(C)nc3C)csc2c1=O`, the IC50 in data set [2] was 200 nM; in data set [4], 6.4 nM. In addition, in data set [8], the solubility worked out at 4.5 µg/mL (≈ 12.9 µM).
Consider `CCn1c(NC(C)C)nc2c(-c3ccnc(OC)c3)csc2c1=O`, for which the IC50 in data set [2] was 420 nM; in data set [4] it was 4.6 nM. Moreover, the concentration in solution in data set [8] (solubility) came to 2.4 µg/mL (≈ 6.97 µM).
The like results for `CCn1c(NC(C)C)nc2c(-c3cncnc3)csc2c1=O` were, in that order, 1100 nM, 7.6 nM and 18 µg/mL (≈ 57.1 µM).
For `CCn1c(NC(C)C)nc2c(C3CCNCC3)csc2c1=O`, in that order: 14000 nM, 190 nM and 1100 µg/mL (≈ 3430 µM).
Regarding `CCn1c(NC(C)C)nc2c(C3CCN(C(C)C)CC3)csc2c1=O`, the IC50 is over 3000 nM in data set [1], 25000 nM in data set [2] and 170 nM in data set [4]. In data set [8], the concentration in solution (solubility) was 350 µg/mL (≈ 965 µM).
For `CCn1c(NC(C)C)nc2c(C3CCN(c4ccccn4)CC3)csc2c1=O`, the IC50 in data set [1] is over 3000 nM; in data set [2] it was 440 nM; in data set [4] it was 6.8 nM.
As to `CCn1c(NC(C)C)nc2c(C3CCN(C(C)=O)CC3)csc2c1=O`, the IC50 in data set [1] was 2000 nM; in data set [2], 1500 nM; in data set [4] it was 20 nM. This molecule also registered a solubility in data set [8] of 74 µg/mL (≈ 204 µM).
The like results for `CCn1c(NC(C)C)nc2c(C3CCCN(C(C)=O)C3)csc2c1=O` (stereo not given) were, in that order, 750 nM, 560 nM, 5.1 nM and 230 µg/mL (≈ 634 µM).
For `CCn1c(NC(C)C)nc2c(C3CCN(C(C)=O)C3)csc2c1=O` (stereo not given), the IC50 in data set [2] came out at 1900 nM; in data set [4], 15 nM. For the same molecule, the concentration in solution in data set [8] (solubility) was 470 µg/mL (≈ 1350 µM).
Consider `CCn1c(NC(C)C)nc2c(C3CCN(C(=O)C(C)C)C3)csc2c1=O` (stereo not given), for which the IC50 was over 1000 nM in data set [1], 1400 nM in data set [2] and 8.4 nM in data set [4]. The molecule also registered a solubility in data set [8] of 130 µg/mL (≈ 345 µM).
The like results for `CCn1c(NC(C)C)nc2c(C3CCN(C(=O)CC(C)C)C3)csc2c1=O` (stereo not given) were, in that order, 1800 nM, 2300 nM, 8.1 nM and 15 µg/mL (≈ 38.4 µM).
With `CCn1c(NC(C)C)nc2c(C3CCN(C(=O)c4ccccc4)C3)csc2c1=O` (stereo not given), the IC50 in data set [1] is 760 nM; in data set [2], 380 nM; in data set [4] it was 1.5 nM. Also, the solubility in data set [8] is 21 µg/mL (≈ 51.2 µM).
For the molecule `CCn1c(NC(C)C)nc2c(C3CCN(C(=O)c4ccccn4)C3)csc2c1=O` (stereo not given), the IC50 worked out at 290 nM in data set [1]; 200 nM in data set [2]; 3300 nM in data set [3]; 2.7 nM in data set [4]; 3000 nM in data set [5]. For the same molecule, the “inhibition (INH)” value in data set [6] is listed as 45%; in data set [7], 72%. In data set [8], the concentration in solution (solubility) was 38 µg/mL (≈ 92.3 µM).
Regarding `CCn1c(NC(C)C)nc2c(C3CCN(C(=O)c4ncccc4C)C3)csc2c1=O` (stereo not given), the IC50 in data set [1] turned out to be 270 nM; in data set [2] it was 140 nM; in data set [3], 1300 nM; in data set [4], 1.4 nM; in data set [5], 3100 nM. The “inhibition (INH)” value in data set [6] stood at 62%; in data set [7], 77%. In data set [8], this molecule registered a solubility of 64 µg/mL (≈ 150 µM).
